Experiments:
menin protein = molecular target: T1, menin protein (Homo sapiens, UniProt O00255); assay: Fluorescence polarization; conditions: for Times more potent than MIV-6 in binding to menin: FP binding assay
T1 sequence (O00255 1-610): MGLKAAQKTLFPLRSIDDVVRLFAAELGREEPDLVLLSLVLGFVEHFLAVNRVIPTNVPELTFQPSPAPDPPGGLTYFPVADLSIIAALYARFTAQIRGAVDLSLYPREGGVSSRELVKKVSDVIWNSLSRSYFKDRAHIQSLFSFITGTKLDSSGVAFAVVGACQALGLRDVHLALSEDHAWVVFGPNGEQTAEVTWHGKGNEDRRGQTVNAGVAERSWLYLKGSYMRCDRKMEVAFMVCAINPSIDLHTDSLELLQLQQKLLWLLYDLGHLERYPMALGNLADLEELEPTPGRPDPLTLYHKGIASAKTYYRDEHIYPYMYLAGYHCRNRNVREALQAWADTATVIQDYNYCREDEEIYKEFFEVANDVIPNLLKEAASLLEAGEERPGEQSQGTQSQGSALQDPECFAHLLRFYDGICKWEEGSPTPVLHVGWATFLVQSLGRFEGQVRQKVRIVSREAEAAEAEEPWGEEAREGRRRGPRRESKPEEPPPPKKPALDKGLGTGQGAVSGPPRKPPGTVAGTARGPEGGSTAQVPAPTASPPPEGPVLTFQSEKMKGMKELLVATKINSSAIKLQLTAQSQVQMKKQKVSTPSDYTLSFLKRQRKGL

MV4;11 cell line = assay: Cell growth inhibition assay; assay type: cell-based, human
Solubility comparison = assay type: physicochemical; conditions: compared with 20

Structure (SMILES): CC(=O)O[C@H]1CCC[C@@H]1[C@](C#N)(c1ccccc1)C1CCN(CC2CN(c3ccc(C#N)cc3)C2)CC1 (mixture of isomers) [Compound 35, rac-(1S,2R)-2-((S)-Cyano(1-((1-(4-cyanophenyl)azetidin-3-yl)methyl)piperidin-4-yl)(phenyl)methyl)cyclopentyl acetate]
- Times more potent than 31 in binding to menin (menin protein): 80 times

Structure (SMILES): CCCC(=O)O[C@H]1CCC[C@@H]1[C@](C#N)(c1ccccc1)C1CCN(CC2CN(c3ccc(C#N)cc3)C2)CC1 (mixture of isomers) [Compound 38, rac-(1S,2R)-2-((S)-Cyano(1-((1-(4-cyanophenyl)azetidin-3-yl)methyl)piperidin-4-yl)-(phenyl)methyl)cyclopentyl butyrate]
- Fold loss in binding affinity to menin relative to 37 (menin protein): 30 fold

Structure (SMILES): CNC(=O)O[C@H]1CCC[C@@H]1[C@](C#N)(c1ccccc1)C1CCN(CC2CN(c3ccc(C#N)cc3)C2)CC1 (mixture of isomers) [Compound 39, rac-(1S,2R)-2-((S)-Cyano(1-((1-(4-cyanophenyl)azetidin-3-yl)methyl)piperidin-4-yl)-(phenyl)methyl)cyclopentyl methylcarbamate]
- Times more potent than 31 in binding to menin (menin protein): > 100 times
- Factor of enhancement of cellular activity in MV4;11 relative to 31 (MV4;11 cell line): > 50

Structure (SMILES): CNC(=O)O[C@H]1CCC[C@@H]1[C@]1(C2CCN(CC3CN(c4ccc(S(=O)(=O)c5ccncc5)cc4)C3)CC2)CN(C)Cc2ccccc21 (mixture of isomers) [Compound 42, rac-(1S,2R)-2-((S)-2-Methyl-4-(1-((1-(4-(pyridin-4-ylsulfonyl)phenyl)azetidin-3-yl)methyl)piperidin-4-yl)-1,2,3,4-tetrahydroisoquinolin-4-yl)cyclopentyl methylcarbamate]
- Times more potent than MIV-6 in cell growth inhibition (MV4;11 cell line; MV4;11 (M-89: MV4;11 and MOLM-13)): > 100 times

Structure (SMILES): N#Cc1ccc(N2CC(CN3CCC(C(C#N)(c4ccccc4)C4CCCC4)CC3)C2)cc1 (racemic) [Compound 31, rac-4-(3-((4-(cyano(cyclopentyl)(phenyl)methyl)piperidin-1-yl)methyl)azetidin-1-yl)benzonitrile]
- Times weaker than MIV-6 in binding to menin (menin protein): 16 times

Structure (SMILES): N#Cc1ccc(OCCCN2CCC(C3(C4CCCC4)NCCc4ccccc43)CC2)cc1 (stereo not drawn) [Compound 6, 4-(3-(4-(1-Cyclopentyl-1,2,3,4-tetrahydroisoquinolin-1-yl)piperidin-1-yl)propoxy)-benzonitrile]
- Times more potent than MIV-6 in binding to menin (menin protein): 2-3 times

Structure (SMILES): N#Cc1ccc(N2CCC(N3CCC(C4(C5CCCC5)NCCc5ccccc54)CC3)CC2)cc1 (stereo not drawn) [Compound 9, 4-(4-(1-Cyclopentyl-1,2,3,4-tetrahydroisoquinolin-1-yl)-[1,4'-bipiperidin]-1'-yl)benzonitrile]
- Times less potent than 6 in binding to menin (menin protein): approximately 10 times

Structure (SMILES): N#Cc1ccc(N2CCCC(CN3CCC(C4(C5CCCC5)NCCc5ccccc54)CC3)C2)cc1 (stereo not drawn) [Compound 10, 4-(3-((4-(1-Cyclopentyl-1,2,3,4-tetrahydroisoquinolin-1-yl)piperidin-1-yl)methyl)piperidin-1-yl)benzonitrile]
- Times less potent than 6 in binding to menin (menin protein): ~100 times

Structure (SMILES): N#Cc1ccc(N2CC(CN3CCC(C4(C5CCCC5)NCCc5ccccc54)CC3)C2)cc1 (stereo not drawn) [Compound 12, 4-(3-((4-(1-Cyclopentyl-1,2,3,4-tetrahydroisoquinolin-1-yl)piperidin-1-yl)methyl)azetidin-1-yl)benzonitrile]
- Times more potent than 6 in binding to menin (menin protein): 2 times
- Times more potent than MIV-6 in binding to menin (menin protein): 5 times

Structure (SMILES): CS(=O)(=O)c1ccc(N2CC(CN3CCC(C4(C5CCCC5)NCCc5ccccc54)CC3)C2)cc1 (stereo not drawn) [Compound 13, 1-Cyclopentyl-1-(1-((1-(4-(methylsulfonyl)phenyl)azetidin-3-yl)methyl)piperidin-4-yl)-1,2,3,4-tetrahydroisoquinoline]
- Times less potent than 12 in binding to menin (menin protein): 4 times

Structure (SMILES): CC(C)S(=O)(=O)c1ccc(N2CC(CN3CCC(C4(C5CCCC5)NCCc5ccccc54)CC3)C2)cc1 (stereo not drawn) [Compound 15, 1-Cyclopentyl-1-(1-((1-(4-(isopropylsulfonyl)phenyl)azetidin-3-yl)methyl)piperidin-4-yl)-1,2,3,4-tetrahydroisoquinoline]
- Times less potent than 14 in binding to menin (menin protein): 2 times
- Times more potent than 13 in binding to menin (menin protein): 2 times

Structure (SMILES): O=S(=O)(c1ccc(N2CC(CN3CCC(C4(C5CCCC5)NCCc5ccccc54)CC3)C2)cc1)C1CC1 (stereo not drawn) [Compound 16, 1-Cyclopentyl-1-(1-((1-(4-(cyclopropylsulfonyl)phenyl)azetidin-3-yl)methyl)piperidin-4-yl)-1,2,3,4-tetrahydroisoquinoline]
- Times more potent than 15 in binding to menin (menin protein): 2-3 times

Structure (SMILES): O=S(=O)(c1ccncc1)c1ccc(N2CC(CN3CCC(C4(C5CCCC5)NCCc5ccccc54)CC3)C2)cc1 (stereo not drawn) [Compound 21, 1-Cyclopentyl-1-(1-((1-(4-(pyridin-4-ylsulfonyl)phenyl)azetidin-3-yl)methyl)piperidin-4-yl)-1,2,3,4-tetrahydroisoquinoline]
- Relative solubility (Solubility comparison): more soluble than 20

Structure (SMILES): O=S(=O)(c1ccncc1)c1ccc(N2CC(CN3CCC(C4(C5CCCC5)CNCc5ccccc54)CC3)C2)cc1 (stereo not drawn) [Compound 22, 4-Cyclopentyl-4-(1-((1-(4-(pyridin-4-ylsulfonyl)phenyl)azetidin-3-yl)methyl)piperidin-4-yl)-1,2,3,4-tetrahydroisoquinoline]
- Times more potent than 21 in binding to menin (menin protein): 2-3 times

Structure (SMILES): CN1Cc2ccccc2C(C2CCCC2)(C2CCN(CC3CN(c4ccc(S(=O)(=O)c5ccncc5)cc4)C3)CC2)C1 (stereo not drawn) [Compound 23, 4-Cyclopentyl-2-methyl-4-(1-((1-(4-(pyridin-4-ylsulfonyl)phenyl)azetidin-3-yl)methyl)piperidin-4-yl)-1,2,3,4-tetrahydroisoquinoline]
- IC50 (MV4;11 cell line; Homo sapiens, MV4-11, read-out: IC50 cell growth inhibition MV4;11): 400 to 1000 nM

— PMC7057177 (Journal of medicinal chemistry, 2019)
